Laboratory results taken from ChEMBL document CHEMBL4602671, “Modified Eremophilanes from Parasenecio hastatus and Their Neuroprotective Activities” (J Nat Prod, 2020).
The source made the active and inactive calls. The calls are words filed in the database; no cut-off is given here.

Experiments:
SH-SY5Y [1] = test: Neuroprotective activity in human SH-SY5Y cells assessed as reduction in H2O2-induced cell death at 1 uM preincubated for 1 hr followed by H2O2 addition and measured after 4 hrs by MTT assay relative to control; assay type: functional
SH-SY5Y [2] = test: Neuroprotective activity in human SH-SY5Y cells assessed as reduction in H2O2-induced cell death at 10 uM preincubated for 1 hr followed by H2O2 addition and measured after 4 hrs by MTT assay; assay type: functional, cell-based
SH-SY5Y [3] = test: Neuroprotective activity in human SH-SY5Y cells assessed as reduction in H2O2-induced cell death at 100 uM preincubated for 1 hr followed by H2O2 addition and measured after 4 hrs by MTT assay; assay type: functional, cell-based
SH-SY5Y [4] = test: Cytotoxicity against human SH-SY5Y cells at 100 uM; assay type: cell-based

Row | Structure (SMILES) | Activity (SH-SY5Y [1]) | Activity (SH-SY5Y [2]) | Activity (SH-SY5Y [3]) | Activity (SH-SY5Y [4])
1 | COc1c2cccc(C)c2c(CO)c2c(C)coc12 | inactive | Active | Active | 
2 | C/C=C(/C)C(=O)OC[C@H]1c2c(c(OC)c3occ(C)c3c2C)C=C[C@H]1OC | >10% | Active | Active | 
3 | COc1c2c(c(C)c3c(C)coc13)[C@H](CO)[C@H](O)C=C2 | >10% | Active | Active | 
4 | COC[C@@]1(O)c2c(C)cccc2C(=O)c2occ(C)c21 | Active |  |  | Toxic
5 | COc1c2cccc(C)c2cc2c(C)coc12 | inactive | Active | Active | 
6 | COc1c(O)c(C(C)=O)c(C)c2c(C)cccc12 | inactive | Active | Active | 
7 | Cc1cccc2c1C(=O)c1c(C)coc1C2=O | inactive | Active | Active | 
8 | COCc1c2c(C)cccc2c(OC)c2occ(C)c12 | >10% | Active | Active | 
9 | C/C=C(/C)C(=O)OCc1c(C(C)=O)c(O)c(OC)c2c1[C@@H](C)[C@@H](O)C=C2 | inactive | Active | Active | 
10 | COc1c2c(c(C)c3c(C)coc13)[C@@H](C)[C@@H](O)C=C2 | >10% | Active | Active | 
11 | COc1c(O)c(C(C)=O)c(C)c2c1C=CC[C@@H]2C | inactive | Active | Active | 
12 | Cc1coc2c1[C@](C)(O)c1c(ccc(O)c1C)C2=O | Active | Active |  | Toxic
13 | COc1c2cccc(C)c2c(C)c2c(C)coc12 | >10% | Active | Active | 
14 | Cc1cccc2c1[C@@](C)(O)c1c(C)coc1C2=O | Active | Active |  | Toxic
15 | COc1c2c(c(C)c3c(C)coc13)[C@@H](C)[C@@H](O)CC2 | inactive | Active | Active | 
16 | CCOCc1c2c(C)cccc2c(OC)c2occ(C)c12 | inactive | Active | Active | 
17 | COc1c(O)c(C(C)=O)c(C)c2c1C=C[C@H](O)[C@@H]2C | inactive | Active | Active | 
18 | COc1c2c(c(C)c3c(C)coc13)[C@@H](C)[C@@H]1O[C@@H]1[C@H]2O | inactive | Active | Active | 
19 | C/C=C(/C)C(=O)OC[C@@H]1c2c(c(OC)c3occ(C)c3c2C)C=C[C@@H]1O | >10% | Active | Active | 
20 | COC[C@H]1c2c(c(OC)c3occ(C)c3c2C)C=C[C@H]1O | >10% | Active | Active | 
21 | Cc1c(C)c2c(c(C)c1O)CCC(C)(C(=O)O)O2 (stereo not given) | inactive |  |  | 
